Measurements taken from US10264976B2, “Biocompatible flavonoid compounds for organelle and cell imaging” (The University of Akron, priority 2015, dated 2019).

How the values were obtained:
[1] = system: mitochondria in hMSCs; assay: Co-staining with Mitotracker red CMXRos (subcellular distribution); assay type: cell-based, human; details: 5 μM dye and 25 nM MT, 25 min
Protocol: To determine the subcellular distribution of the probes in living cells, the MT were co-incubated with MC-Mito1 and MC-Mito2, respectively. […] Despite that the decrease of membranes potential will severely affect the direction and accumulation of cationic mitochondrial probes.
Human mesenchymal stem cells (hMSCs) (Lonza, Walkersville, Md.) were cultured in serum-containing MSCBM medium (Lonza) supplemented with MSCGM SingleQuots (Lonza) according to manufacturer's specifications. hMSCs (Passage 5) were seeded at a density of 5.0×10^4 cell/cm^2. For co-staining experiments, the hMSCs were seeded on 12-well plate, cultured in MSCBM medium (Lonza) supplemented with MSCGM SingleQuots (Lonza), and incubated with 5 μM MC and 25 nM Mitotracker® red CMXRos (MT), 5 μM MC-Br and 25 nM MT, 5 μM MC-Mito1 and 25 nM MT, 5 μM MC-Mito2 and 25 nM MT for 25 min at 37° C., respectively. Each well contains 1 ml of medium and 0.05 ml DMSO (dissolving probe). The cell imaging was obtained on a Zeiss inverted fluorescence microscopy with X-Cite Series 120Q. The blue channel filter: excitation 365 nm, beam splitter FT 395 nm, emission 445/50 nm. The green channel filter: excitation 450-490 nm, beam splitter FT 510 nm, emission 515-565 nm. The red channel filter: excitation 587/25 nm, beam splitter FT 605 nm, emission 647/70 nm.

[2] = system: hMSCs; assay: Cytotoxicity determined by MTT method; assay type: cell-based, human; details: for cell viability: hMSCs, 0, 2, 5, 10 μM, 24 h
Protocol: Before the application for cell imaging, the cytotoxicity of MC-Mito1 and MC-Mito2 were evaluated by the widely used MTT assay to evaluate the tolerance of sensors to their working concentrations. The samples were incubated with 0, 2, 5, 10 μM MC-Mito1, MC-Mito2 and Mitotracker® red CMXRos (MT) for 24 h, respectively (FIG. 5). […] In contrast, only less than 10% of the cells were viable after incubation with 5 μM of commercial mitochondrial dye MT for 24 hours. […] The hMSCs were seeded in 12-well plates at a density of 5.0×10^4 cell/cm^2. After 24 h incubation, the cells were exposed to a series of doses of probe MC-Mito1 or MC-Mito2, and MT at 37° C. The concentration of MT (0, 2, 5, 10 μM) was similar as reported in literature.^28 After 24 hours, MTT solution (sigma) was added and kept 3 h in the incubator. MTT solubilization solution was then added into each well and the plate was gently shaken for 10 min at room temperature. The absorbance of MTT in the sample well was determined by subtracting the absorbance of the sample well from corresponding control well. Cell viability was expressed by the ratio of the absorbance of MTT in the sample wells to that of the cells incubated with culture medium only.

[3] = system: hMSCs; assay: Cell staining efficiency without washing process; assay type: cell-based, human
Protocol: To assess their cell staining efficiencies, the hMSCs cells were incubated with MT, MC-Mito1 and MC-Mito2, respectively. Cell staining was continuously recorded in 3 min, 10 min and 25 min without washing process. It was found MC-Mito1 and MC-Mito2 quickly stained the living cells in 10 mins. In contrast, the MT acquired longer time to efficiently stain cells. The fluorescence signal of MC-Mito1 and MC-Mito2 from the ‘blue channel’ on fluorescence microscope (420-470 nm) were confined in cells with a negligible background signal from the culture medium, supporting the hypothesis that the flavone dyes gave higher emission in low-polar environment. Generally, the S/N ratios in fluorescent images were above 3, which could be considered acceptable for the discrimination of mitochondria. Therefore, this wash-free method could be a useful probe for real-time monitor of mitochondrial changes.
Human mesenchymal stem cells (hMSCs) (Lonza, Walkersville, Md.) were cultured in serum-containing MSCBM medium (Lonza) supplemented with MSCGM SingleQuots (Lonza) according to manufacturer's specifications. hMSCs (Passage 5) were seeded at a density of 5.0×10^4 cell/cm^2. […] The cell imaging was obtained on a Zeiss inverted fluorescence microscopy with X-Cite Series 120Q. […]

[4] = system: mitochondria in CCCP-treated hMSCs; assay: Effects of CCCP on uptake of dyes; assay type: cell-based, human; details: for specificity to mitochondria after CCCP treatment / uptake / imaging signal (sensitivity) after CCCP treatment: hMSCs pre-treated with 10 μM CCCP for 30 min, 5 μM dye, 25 nM MT, 25 min
Excerpt: Mitochondria can continuously oxidize substrates and maintain a proton gradient across the lipid bilayer with very large membrane potential (−180 mV). The membrane potential as the major driving force enables the entrance and accumulation of the cationic species into mitochondria rather than cell plasma. CCCP is an uncoupler that causes rapid acidification of mitochondria and dysfunction of ATP synthase resulting in the decrease of mitochondrial membranes potential. To confirm the tolerances of MC-Mito1 and MC-Mito2, carbonyl cyanide m-chlorophenylhydrazone (CCCP) was used to treat the cells prior to the staining procedure.
It was expected because CCCP-induced decrease of membranes potential will severely affect the direction and accumulation of cationic mitochondrial probes. The most of commercial mitochondrial probes are suffered by the similar limitation. […] Compared with MC-Mito1, MC-Mito2 has longer hydrophobic linker between the flavone dye and the cation. Since mitochondrial membrane is composed of phospholipid bilayers and proteins, the stronger lipophilicity has been supposed to play an important role in retaining the specificity of MC-Mito2 in CCCP-treated cells.
The hMSCs were treated with 10 μM carbonyl cyanide m-chlorophenylhydrazone (CCCP) for 30 min. and then were washed with fresh medium. After that, the cells were incubated with 5 μM MC-Mito1 and 25 nM MT, 5 μM MC-Mito2 and 25 nM MT for 25 min at 37° C., respectively. After staining, the cells were imaged by microscope without PBS solution washing procedure.

[5] = UV absorption and fluorescence spectra of the dyes; details: for Stokes shift: in DMSO; for absorption maxima / emission maxima: in DMSO solution
[6] = biological target: bovine serum albumin (BSA) (Bos taurus, UniProt P02769); assay: Fluorescence response upon addition of bovine serum albumin; assay type: binding; details: 2 equivalents of BSA; 2 μM probe, 1 mM HEPES buffer (1% DMSO); at 495 nm (MC-Mito1) / 490 nm (MC-Mito2)
Protocol: FIG. 4B provides a graph showing the fluorescence intensity changes of MC-Mito1 in the presence of increasing concentrations of BSA in 1 mM HEPES buffer (1% DMSO). [MC-Mito1]=[MC-Mito2]=2 μM, [BSA]=0˜4 μM. λex=400 nm.
FIG. 11 is a chart showing fluorescence spectra of DMAF ([DMAF]=10 μM, 1 mM HEPES buffer containing 1% DMSO, pH=7.4) upon addition of different concentration of BSA ([BSA]=0-10 μM, 1 mM HEPES).
MC-Mito1 and MC-Mito2 were nearly non-fluorescent in water (QYs <1%), due to specific H-bonding interaction of water solvents with H-bond acceptor carbonyl groups in flavone skeleton. However, upon addition of bovine serum albumin (BSA) into probe water solution, the fluorescence intensity increased sharply (FIG. 4A-D). After addition of 2 equivalent of BSA, the fluorescence intensity of MC-Mito1 at 495 nm was enhanced by about 17-fold, which was accompanied with a large blue-shift (from 540 nm to 495 nm, FIGS. 4A and 4B). […] By using rhodamine 6G in ethanol (QY=95%) as a reference, the fluorescence quantum yield (QY) of MC-Mito1 and MC-Mito2 were determined to be 28% and 33%, respectively. […] The high signal-to-noise ratio (>10) enables the simple wash-free in vivo fluorescence imaging. […]

[7] = Fluorescence quantum yield (rhodamine 6G standard); assay type: physicochemical; details: rhodamine 6G in ethanol as reference; reported after BSA addition experiment
Excerpt: The fluorescence quantum yields were obtained using rhodamine 6G (sigma) as the standard (Φfl=0.95, ethanol). The fluorescence quantum yields can be calculated by using the following Eq: Φs=Φr×(Ar×ns^2×Fs)/(As×nr^2×Fr) where the subscripts s and r refer to the sample and the standard, respectively. Φ is the quantum yield, F is the integrated emission intensity, A is the absorbance, and n is the refractive index. Zebrafish Breeding and Imaging

Sequence of bovine serum albumin (BSA) (P02769 25-607): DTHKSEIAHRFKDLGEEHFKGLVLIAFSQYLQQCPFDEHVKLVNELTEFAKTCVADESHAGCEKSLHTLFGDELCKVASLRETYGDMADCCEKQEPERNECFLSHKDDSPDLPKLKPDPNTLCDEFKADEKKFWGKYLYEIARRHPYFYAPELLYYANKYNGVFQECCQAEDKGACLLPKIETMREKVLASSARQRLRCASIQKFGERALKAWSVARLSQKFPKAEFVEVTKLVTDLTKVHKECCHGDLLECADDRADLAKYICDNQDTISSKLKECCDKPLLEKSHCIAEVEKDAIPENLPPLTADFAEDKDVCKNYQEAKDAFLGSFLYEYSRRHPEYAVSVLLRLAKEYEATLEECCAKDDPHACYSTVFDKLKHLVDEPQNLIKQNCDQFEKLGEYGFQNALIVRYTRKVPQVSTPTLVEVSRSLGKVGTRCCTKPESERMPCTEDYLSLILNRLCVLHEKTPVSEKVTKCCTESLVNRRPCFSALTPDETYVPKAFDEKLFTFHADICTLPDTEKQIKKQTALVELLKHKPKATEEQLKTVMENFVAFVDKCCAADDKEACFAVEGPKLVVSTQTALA

## O=c1c(O)c(-c2ccc(N3CCOCC3)cc2)oc2ccccc12 [MC, 3-hydroxy-2-(4-morpholinophenyl)-4H-chromen-4-one]
[1]
  co-localization with MT (mitochondria): almost no co-localization with MT

## ClCc1ccc(C2=c3cc4c5c(c3Oc3c2cc2c6c3CCCN6CCC2)CCC[N+]=5CCC4)cc1.[Cl-] [MT, reference compound]
[2]; hMSCs, 5 μM, 24 hours
  viable cells: less than 10%
[3]
  time to stain living cells: longer time
[4]
  specificity to mitochondria after CCCP treatment: specificity became worse
  uptake / imaging signal (sensitivity) after CCCP treatment: decreased by more than half

## O=c1c(OCCC[P+](c2ccccc2)(c2ccccc2)c2ccccc2)c(-c2ccc(N3CCOCC3)cc2)oc2ccccc12.[Br-] [MC-Mito1, (3-(2-(4-morpholinophenyl)-4-oxo-4H-chromen-3-yloxy)propyl)triphenylphosphonium bromide]
[2]
  cell viability: ~100%
[5]
  Stokes shift: ~127 nm
  absorption maxima: 373 nm
  emission maxima: 500 nm
[6]
  fluorescence intensity enhancement: about 17 fold
[7]
  fluorescence quantum yield (QY): 28%
[1]
  co-localization with MT (mitochondria): matched those stained with MT (red channel) very well
[4]
  specificity to mitochondria after CCCP treatment: almost no more specificity to mitochondria
  uptake / imaging signal (sensitivity) after CCCP treatment: extremely weaker imaging signal than that in normal cells

## O=c1c(OCCCCCCBr)c(-c2ccc(N3CCOCC3)cc2)oc2ccccc12 [MC-Br, 3-(6-bromohexyloxy)-2-(4-morpholinophenyl)-4H-chromen-4-one]
[1]
  co-localization with MT (mitochondria): almost no co-localization with MT

## N#CC(C#N)=NNc1cccc(Cl)c1 [CCCP, carbonyl cyanide m-chlorophenylhydrazone, reference compound]
[4]; hMSCs, 10 μM CCCP for 30 min
  mitochondrial morphology: mostly transformed to small and dispersed fragments

## O=c1c(OCCCCCC[P+](c2ccccc2)(c2ccccc2)c2ccccc2)c(-c2ccc(N3CCOCC3)cc2)oc2ccccc12.[Br-] [MC-Mito2, (6-(2-(4-morpholinophenyl)-4-oxo-4H-chromen-3-yloxy)hexyl)triphenylphosphonium bromide]
[2]
  cell viability: ~100%
[5]
  Stokes shift: ~127 nm
  absorption maxima: 373 nm
  emission maxima: 500 nm
[6]
  fluorescence intensity enhancement: about 55 fold
[7]
  fluorescence quantum yield (QY): 33%
[1]
  co-localization with MT (mitochondria): matched well with MT
[4]
  specificity to mitochondria after CCCP treatment: perfectly retained
  uptake / imaging signal (sensitivity) after CCCP treatment: perfectly retained
